In PubChem BioAssay (NCI):
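Protocol summary: plate cells (96-well), add compound at 5 concentrations, incubate 48 h, interpolate endpoints linearly. TGI marks complete inhibition of growth.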

What was measured:
Test in all cases: inhibition of tumour cell growth, NCI panel, 48 h
M14 melanoma = tested on: M14 melanoma
MALME-3M melanoma = tested on: MALME-3M melanoma
OVCAR-3 ovarian = tested on: OVCAR-3 ovarian
HOP-92 NSCLC = tested on: HOP-92 NSCLC
UO-31 renal = tested on: UO-31 renal
PC-3 prostate = tested on: PC-3 prostate
NCI-H23 lung = tested on: NCI-H23 lung
HL-60(TB) leukemia = tested on: HL-60(TB) leukemia
SF-268 CNS = tested on: SF-268 CNS
MOLT-4 leukemia = tested on: MOLT-4 leukemia
CAKI-1 renal = tested on: CAKI-1 renal
SNB-19 CNS = tested on: SNB-19 CNS
SN12C renal = tested on: SN12C renal
SF-539 CNS = tested on: SF-539 CNS
COLO 205 colon = tested on: COLO 205 colon
HCT-15 colon = tested on: HCT-15 colon
IGROV1 ovarian = tested on: IGROV1 ovarian
T-47D breast = tested on: T-47D breast
NCI-H460 lung = tested on: NCI-H460 lung
SR leukemia = tested on: SR leukemia

SMILES	TGI (M14 melanoma) [µM]	TGI (MALME-3M melanoma) [µM]	TGI (OVCAR-3 ovarian) [µM]	TGI (HOP-92 NSCLC) [µM]	TGI (UO-31 renal) [µM]	TGI (PC-3 prostate) [µM]	TGI (NCI-H23 lung) [µM]	TGI (HL-60(TB) leukemia) [µM]	TGI (SF-268 CNS) [µM]	TGI (MOLT-4 leukemia) [µM]	TGI (CAKI-1 renal) [µM]	TGI (SNB-19 CNS) [µM]	TGI (SN12C renal) [µM]	TGI (SF-539 CNS) [µM]	TGI (COLO 205 colon) [µM]	TGI (HCT-15 colon) [µM]	TGI (IGROV1 ovarian) [µM]	TGI (T-47D breast) [µM]	TGI (NCI-H460 lung) [µM]	TGI (SR leukemia) [µM]
O=c1[nH]nc(Cc2c[nH]c3ccccc23)o1	> 100	> 100	> 100	> 100	> 100	> 100	> 100	> 100	> 100	> 100	> 100	> 100	> 100	> 100	> 100	> 100	> 100	> 100		
COC1C(O)C(n2ncc3c(SC)nc(SC)nc32)OC1C(O)CO (stereo not given)		> 100	> 100	> 100	> 100		> 100	> 100	> 100	> 100		> 100	> 100	> 100	> 100	> 100	> 100		> 100	
Nc1nc2ncc(CNc3ccc(C(=O)NC(CCC(=O)O)C(=O)O)cc3)nc2c(=O)[nH]1 (stereo not given)	> 100	> 100	> 100		> 100	> 100	> 100		> 100	> 100		> 100	> 100	> 100		> 100	> 100		> 100	> 100
COc1ccc(N2C(=O)C3c4[nH]c5ccc(Br)cc5c4C4CCC(C(C)(C)C)CC4C3C2=O)cc1 (stereo not given)	> 100	> 100	> 100			> 100	> 100	> 100	> 100	> 100	> 100	> 100	> 100	> 100	> 100	> 100	> 100		> 100	> 100
CCOC(=O)c1cc2/c(=C\c3ccc(N(C)C)cc3)c3ccccc3n2[n+]1C	15.2		0.581	14.9	19.3	12.7	12.3	2.37	19.7	> 23.4	15.3	15.6	14.4	4.02	1.42	31.9		24.6	12.6	
CCOC(=O)C1=NN(c2ccc([N+](=O)[O-])cc2)[C@@]2(C)C[C@]3(c4ccccc4)N(c4ccc([N+](=O)[O-])cc4)N=C(C(=O)OCC)N3c3ccccc3N12	> 100	> 100	> 100		> 100	> 100	> 100	> 100	> 100	> 100	> 100	> 100	> 100	> 100	> 100	> 100	> 100	> 100		> 100
CN(/N=C/c1cccc2cccnc12)c1ccc(Cl)cc1[N+](=O)[O-]	> 100	> 100	> 100	> 100	> 100	> 100	> 100	> 100	> 100	> 100	> 100	> 100	> 100	> 100	> 100	> 100	> 100		> 100	> 100
N#Cc1c(N2CCC(O)C2)c2ccccc2n2c1nc1ccccc12 (stereo not given)	> 100	> 100	> 100	95.7	> 100	> 100	> 100	> 100	> 100	> 100	> 100	> 100	> 100	> 100	> 100	> 100	> 100	> 100	> 100	
CC1SCc2nc3ccccc3n21 (stereo not given)	> 100	> 100	> 100	> 100	> 100	> 100	> 100	> 100	> 100	> 100	> 100	> 100	> 100	> 100	> 100	> 100	> 100	> 100	> 100	
CC(C)NC(=O)OCc1c(CO)c2c(n1C)-c1ccccc1CC2		> 31.6	66.9	53.7	71.4		> 65.1	> 58.3	> 100	48.9	29.7	> 100	59.8	57.3	44.7	54.6	> 77.6		67.7	
S=C1CCSc2c(ccc3ccccc23)N1	> 100	> 100	> 100		> 100	> 100	> 100	> 100	> 100	> 100	> 100	> 100	> 100		> 100	> 100	> 100	> 100	> 100	> 100
CCOC(=O)C1=CCOc2cc(N(C)C)ccc21	> 100	> 100	55.3		> 100	> 100	> 100	> 100	> 100		> 100	> 100	> 100	> 100	> 100	> 100	> 100		> 100	> 100
C/C(CC(O)(/C=N/O)c1ccccc1)=N/O (stereo not given)	> 100	> 100	> 100		> 100	> 100	> 100		> 100	> 100	> 100	> 100	> 100	> 100		> 100	> 100	> 100	> 100	> 100
